Results published in PMC9603521, “WYBQ-4: a New Bactericidal Agent against Methicillin-Resistant Staphylococcus aureus” (Microbiology Spectrum, 2022).
In brackets after ≈: the same amount, converted by molar mass.

Columns and labels:
[1] = test system: MSSA ATCC 29213; experiment: Postantibiotic effect (viable plate count); format: cell-based, Staphylococcus aureus; settings: 1 h exposure
Protocol: The postantibiotic effect (PAE) of WYBQ-4 against MSSA 29213 was determined in MHB agar using the viable plate count method ([39]). […] After incubation at 37°C for 1 h, WYBQ-4 was removed by centrifugation and washing with phosphate-buffered saline (PBS). Subsequently, fresh MHB medium was added to resuspend the bacteria, and the mixture was incubated at 37°C with shaking. The number of colonies was counted by taking 10 μL of bacteria at 1-h intervals and applying them to BHI agar plates after appropriate dilution. PAE duration was calculated as follows: time (h) for bacteria to return to log-phase growth after drug treatment – time (h) for the control group to return to log-phase growth ([40]).

[2] = test system: methicillin-susceptible Staphylococcus aureus (MSSA) 29213; experiment: MIC by broth microdilution (CLSI); format: cell-based
Protocol: (§1) The antibacterial spectrum and susceptibility of WYBQ-4 against MRSA USA300, MSSA 29213, and clinically isolated S. aureus were determined using a broth microdilution method following the guidelines outlined by the Clinical and Laboratory Standards Institute (CLSI) ([37], [38]). […] The absorbance was measured at 600 nm, and experiments were repeated in three biological replicates.

[3] = test system: MRSA USA300; experiment: MIC by broth microdilution (CLSI); format: cell-based; settings: Staphylococcus aureus
Protocol: as §1

[4] = test system: Streptococcus pyogenes; experiment: MIC by broth microdilution (CLSI); format: cell-based
[5] = target: PBP1 (Staphylococcus aureus, UniProt Q53725); experiment: PBP binding, bocillin competition fluorescence gel assay; settings: dose-dependent
Chain of PBP1 (Q53725 1-744): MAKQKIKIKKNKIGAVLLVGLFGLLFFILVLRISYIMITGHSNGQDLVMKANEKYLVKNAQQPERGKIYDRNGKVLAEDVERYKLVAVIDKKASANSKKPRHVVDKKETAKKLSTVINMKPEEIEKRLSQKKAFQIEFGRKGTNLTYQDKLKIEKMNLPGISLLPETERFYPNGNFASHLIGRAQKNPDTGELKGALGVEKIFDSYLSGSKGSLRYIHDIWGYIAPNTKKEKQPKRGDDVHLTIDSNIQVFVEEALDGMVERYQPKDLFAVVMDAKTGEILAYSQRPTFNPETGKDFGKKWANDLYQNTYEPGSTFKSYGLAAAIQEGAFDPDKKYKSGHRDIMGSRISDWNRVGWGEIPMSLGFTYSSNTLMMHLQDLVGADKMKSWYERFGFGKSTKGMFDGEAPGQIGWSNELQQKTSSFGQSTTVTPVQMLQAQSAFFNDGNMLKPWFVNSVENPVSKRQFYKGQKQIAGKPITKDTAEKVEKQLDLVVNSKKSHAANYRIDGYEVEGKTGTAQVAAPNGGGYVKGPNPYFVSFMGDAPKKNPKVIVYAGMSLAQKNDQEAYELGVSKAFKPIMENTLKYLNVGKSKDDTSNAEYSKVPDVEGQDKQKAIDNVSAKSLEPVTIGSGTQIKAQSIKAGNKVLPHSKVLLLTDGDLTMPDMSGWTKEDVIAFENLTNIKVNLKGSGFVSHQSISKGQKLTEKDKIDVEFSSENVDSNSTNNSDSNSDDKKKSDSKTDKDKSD
Protocol: (§2) Using the genome of S. aureus USA300 as a template, PCR was performed to amplify PBP1, PBP2, PBP3, PBP4, and PBP2a genes with primers designed according to Table 1. Then, the amplified fragments were treated with BamHI/XhoI and then inserted into the cloning site of the BamHI/XhoI-digested pET28a to yield pET28a-PBP1, pET28a-PBP2, pET28a-PBP3, pET28a-PBP4, and pET28a-PBP2a, respectively. The plasmid was transformed into E. coli BL21(DE3) and cultured in LB medium containing Kan resistance until the OD600 reached 0.6, and PBP expression was induced overnight at 16°C by adding 0.5 mM IPTG (isopropyl-β-D-thiogalactopyranoside). The bacteria were then lysed by sonication, the […] was collected, and the proteins were purified using a HIS-Select nickel affinity gel system (Beyotime, Shanghai, China).
(§3) PBP binding assays were performed as previously described ([30], [31]). Selective labeling of PBP from preincubated samples ([…] protein) with various concentrations of WYBQ-4 was performed for 15 min, and then 25 μM BOCILLIN FL (Invitrogen) was added, followed by an additional 10 min at 37°C. Proteins were separated by SDS-PAGE, and the PBPs were detected by a gel fluorescence imaging instrument (excitation, 488 nm; emission, 530 nm).

[6] = target: PBP3 (Staphylococcus aureus, UniProt Q9XDB3); experiment: as above; settings: dose-dependent
Chain of PBP3 (Q9XDB3 1-691): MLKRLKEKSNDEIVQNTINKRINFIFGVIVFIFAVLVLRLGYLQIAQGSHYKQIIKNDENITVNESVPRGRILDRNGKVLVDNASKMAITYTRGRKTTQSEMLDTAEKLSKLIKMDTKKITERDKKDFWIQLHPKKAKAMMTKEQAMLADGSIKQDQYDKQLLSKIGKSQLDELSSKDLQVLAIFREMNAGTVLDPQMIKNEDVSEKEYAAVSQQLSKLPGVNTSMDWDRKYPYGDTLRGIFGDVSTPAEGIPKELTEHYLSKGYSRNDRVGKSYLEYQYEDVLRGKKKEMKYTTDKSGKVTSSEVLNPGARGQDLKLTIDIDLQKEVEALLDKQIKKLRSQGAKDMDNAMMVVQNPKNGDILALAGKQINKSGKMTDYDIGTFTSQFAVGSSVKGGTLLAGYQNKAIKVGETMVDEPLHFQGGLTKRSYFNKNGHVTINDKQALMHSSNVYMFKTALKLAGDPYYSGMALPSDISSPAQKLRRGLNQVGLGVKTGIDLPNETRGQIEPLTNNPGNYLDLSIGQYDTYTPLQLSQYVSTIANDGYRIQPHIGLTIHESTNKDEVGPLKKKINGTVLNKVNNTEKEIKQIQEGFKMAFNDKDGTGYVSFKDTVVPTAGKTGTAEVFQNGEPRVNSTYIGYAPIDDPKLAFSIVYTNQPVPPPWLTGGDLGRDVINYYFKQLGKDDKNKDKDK
Protocol: as §2, §3

[7] = target: PBP2 (Staphylococcus aureus, UniProt Q9R744); experiment: as above
Chain of PBP2 (Q9R744 1-727): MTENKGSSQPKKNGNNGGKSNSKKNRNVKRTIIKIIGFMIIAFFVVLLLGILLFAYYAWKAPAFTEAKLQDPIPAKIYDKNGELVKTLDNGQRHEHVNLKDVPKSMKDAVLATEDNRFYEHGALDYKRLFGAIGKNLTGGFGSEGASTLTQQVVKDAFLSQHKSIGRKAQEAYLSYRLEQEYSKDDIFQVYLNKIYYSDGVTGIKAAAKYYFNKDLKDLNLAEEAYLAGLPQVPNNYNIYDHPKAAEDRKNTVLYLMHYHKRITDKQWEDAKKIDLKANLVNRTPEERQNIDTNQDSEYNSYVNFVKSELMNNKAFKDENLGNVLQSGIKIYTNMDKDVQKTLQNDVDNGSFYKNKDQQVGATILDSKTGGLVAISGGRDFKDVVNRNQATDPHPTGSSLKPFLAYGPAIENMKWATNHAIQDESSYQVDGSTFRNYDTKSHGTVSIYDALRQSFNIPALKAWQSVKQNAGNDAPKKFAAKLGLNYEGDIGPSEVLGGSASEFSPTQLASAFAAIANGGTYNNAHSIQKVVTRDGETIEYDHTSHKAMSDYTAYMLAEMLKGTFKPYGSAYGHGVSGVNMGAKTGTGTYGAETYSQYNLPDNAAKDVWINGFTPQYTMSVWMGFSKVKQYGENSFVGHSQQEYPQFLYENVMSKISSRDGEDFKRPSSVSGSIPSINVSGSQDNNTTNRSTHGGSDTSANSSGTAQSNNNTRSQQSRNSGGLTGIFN
Protocol: as §2, §3

[8] = target: PBP4 (Staphylococcus aureus, UniProt P72355); experiment: as above; settings: dose-dependent
Chain of PBP4 (P72355 25-431): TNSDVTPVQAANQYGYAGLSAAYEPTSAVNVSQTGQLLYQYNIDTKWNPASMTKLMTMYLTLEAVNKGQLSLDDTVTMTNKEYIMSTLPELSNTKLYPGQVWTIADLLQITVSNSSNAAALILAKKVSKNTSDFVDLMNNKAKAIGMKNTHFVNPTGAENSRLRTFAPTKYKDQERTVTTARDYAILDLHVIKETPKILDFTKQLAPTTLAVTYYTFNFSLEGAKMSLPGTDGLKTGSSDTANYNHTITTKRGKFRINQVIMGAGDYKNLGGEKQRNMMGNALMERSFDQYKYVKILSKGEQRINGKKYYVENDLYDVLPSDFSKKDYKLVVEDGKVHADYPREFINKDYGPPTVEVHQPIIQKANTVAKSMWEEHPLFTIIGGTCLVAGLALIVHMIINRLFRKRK
Protocol: as §2, §3

[9] = target: PBP2a (Staphylococcus aureus, UniProt Q53707); experiment: as above
Chain of PBP2a (Q53707 entry or part of it): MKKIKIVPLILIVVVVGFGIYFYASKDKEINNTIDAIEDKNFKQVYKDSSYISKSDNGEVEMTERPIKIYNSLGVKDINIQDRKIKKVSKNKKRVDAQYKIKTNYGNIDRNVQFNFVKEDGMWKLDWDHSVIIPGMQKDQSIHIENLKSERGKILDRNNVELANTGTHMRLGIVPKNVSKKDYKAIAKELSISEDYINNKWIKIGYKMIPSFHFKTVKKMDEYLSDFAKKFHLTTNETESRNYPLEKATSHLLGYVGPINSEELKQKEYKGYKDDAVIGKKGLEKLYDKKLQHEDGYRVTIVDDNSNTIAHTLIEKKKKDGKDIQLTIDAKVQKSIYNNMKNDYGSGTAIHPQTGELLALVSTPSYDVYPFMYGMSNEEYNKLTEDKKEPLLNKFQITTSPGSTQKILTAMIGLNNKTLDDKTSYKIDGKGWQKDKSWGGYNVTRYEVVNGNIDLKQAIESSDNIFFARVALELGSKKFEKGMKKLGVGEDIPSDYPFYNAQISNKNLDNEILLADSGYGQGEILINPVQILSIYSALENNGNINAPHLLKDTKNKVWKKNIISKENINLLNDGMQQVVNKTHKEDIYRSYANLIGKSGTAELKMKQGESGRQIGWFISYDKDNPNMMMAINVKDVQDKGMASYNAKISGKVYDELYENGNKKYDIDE
Protocol: as §2, §3

[10] = test system: MRSA USA300; experiment: Mouse lung infection model, bacterial load and histopathology; format: in vivo, mice; settings: mouse pneumonia
Protocol: The mice were challenged with 1 × 10^8 CFU of MRSA USA300 to assess bacterial load and pathological changes. The dose and manner of administration in mice were consistent with the survival experiments. In addition, the mice treated with ceftaroline fosamil at 75 and 37.5 mg/kg were used as control groups. At 48 h postinfection, mice were euthanized, and the left lungs were aseptically removed, weighed, and homogenized. Then, the lung tissues were homogenized and serially diluted for CFU counts. The right lungs were fixed with 10% formalin, embedded in paraffin, thin-sectioned, subjected to conventional hematoxylin and eosin (H&E) staining, and then observed using an optical microscope.

[11] = Acute toxicity test in mice; format: in vivo; settings: intraperitoneal injection 300 mg/kg
Protocol: Acute toxicity test in mice. The acute toxicity test in mice was performed according to the requirements of the Chinese Guidelines for Acute Toxicity of Chemicals (H-GPT1-1) ([42]). In brief, each group of 6 female mice (6 to 8 weeks old, weights of 18 to 20 g, BALB/c) was intraperitoneally injected with a single dose of 300, 150, or 75 mg/kg body weight of WYBQ-4. The mice were injected with PBS as a control group. Then, the poisoning symptoms, abnormal behavior, and survival of the mice in each group were observed within 72 h.

[12] = test system: clinically isolated MRSA; experiment: MIC against clinical isolates; format: cell-based, Staphylococcus aureus; settings: controls moxalactam and cefepime
Protocol: (§4) The clinical strains of MRSA and MSSA isolated in Beijing, Sichuan, and Shanghai in the last 3 years totaled more than 300 strains. Clinical isolates were stored at −80°C in 20% glycerol-rich brain heart infusion (BHI) and passaged twice on Trypticase soy agar prior to the experiment. Before the experiment, 16s RNA identification was performed, and then PCR was used to distinguish MRSA and MSSA by identifying the mecA gene. Furthermore, the MIC of cefoxitin against clinical isolates was tested again. The drug sensitivity results were judged according to the criteria established by the American Society for Clinical Laboratory Standardization. MRSA was determined by a cefoxitin MIC of ≥8 μg/mL ([36]). Finally, 100 strains each of MRSA and MSSA were randomly selected from the identified strains for subsequent experiments. All chemical reagents and antibiotics were purchased from Sigma (St. Louis, MO). S. aureus was grown at 30°C in BHI broth (Oxoid) with constant shaking or on BHI agar plates unless otherwise noted. […]
as §1

[13] = test system: clinically isolated MSSA; experiment: MIC against clinical isolates; format: cell-based, Staphylococcus aureus; settings: controls moxalactam and cefepime
Protocol: as §4, §1

[14] = test system: Gram-negative bacteria; experiment: MIC by broth microdilution (CLSI); format: cell-based; settings: compared to that against Staphylococcus
[15] = test system: methicillin-resistant Staphylococcus epidermidis (MRSE) 12228; experiment: MIC by broth microdilution (CLSI); format: cell-based

## C#CCO[C@@]1(NC(=O)CSc2cccc(C)c2)C(=O)N2C(C(=O)O)=C(CSc3nnnn3C)CSC21 (stereo partly drawn) [WYBQ-4]
[1]; 2× MIC
  PAE: 1.5 h
[1]; 8× MIC
  PAE: 3.5 h
[2]
  MIC: 0.5 µg/mL (≈ 0.915 µM)
[3]
  MIC: 8 µg/mL (≈ 14.6 µM)
[4]
  MIC: 1 µg/mL (≈ 1.83 µM)
[5]
  affinity for PBP1 (bocillin competition): had an affinity
[6]
  affinity for PBP3 (bocillin competition): had an affinity
[7]
  concentration at which bocillin fluorescence disappeared completely: 0.25 µg/mL
[8]
  affinity for PBP4 (bocillin competition): had an affinity
[9]
  IC50: 3.66 µM
[9]; PBP2a
  concentration that completely competed for the binding of bocillin: 2 µg/mL
[10]; USA300 1 × 10^8 CFU, 75 mg/kg, 48 h postinfection
  bacterial counts in the lung: 5.44 ± 0.15 log10 CFU/g
[10]; USA300, after treatment
  inflammatory signs of lung tissue (H&E histopathology): significantly reduced
[11]
  acute toxicity, survival of mice: did not affect the survival of the mice
[12]
  bacteriostatic activity (MIC) versus control drugs: better bacteriostatic activity than the control drugs
[13]
  bacteriostatic activity (MIC) versus control drugs: better bacteriostatic activity than the control drugs
[14]
  antibacterial activity: weak
[15]
  MIC: 4 µg/mL (≈ 7.32 µM)
